“Also recorded” adds a separate entry of the source.

The values that follow come from US20260234217A1, “USE OF BMP RECEPTOR ALK1 INHIBITORS IN OSTEOARTHRITIS THERAPIES” (The Regents of the University of California, priority 2023, published 2026).

The test system of data set [1] is BMP-9-induced BMP reporter activity by ALK5-deficient ATDC5 cells. Kind of data set: BMP-9-induced BMP signal luciferase reporter in ALK5-deficient chondrocytic cells. Format: cell-based, mouse. The settings on record: in the presence of 2 ng/mL of rhBMP-9; read-out: median effective concentration (EC50) to block BMP activity in vitro. From the text:
Ligands that bind to ALK1 at physiological concentrations are BMP9 and BMP10 (Chen et al, PNAS 2013). […] ActRIIB has 300-fold higher affinity for BMP9 than does ActRIIA (Townson et. al., J Biol Chem. 2012 Aug. 10; 287(33):27313-2). The formation of ALK1-ActRIIB complexes is associated with the elevation of levels of pSmad1/5-mediated BMP signaling in cartilage (Wang et al., PNAS 2009)[4]. […] Furthermore, since loss of ALK5 causes OA and ALK5 antagonizes ALK1, these above results provide evidence that blocking ALK1 signaling may prevent OA development.
As described herein, the ALK1 receptor normally binds to ALK5 and/or ActRIIA in healthy chondrocytes, but in OA conditions ALK5 expression levels decline in chondrocytes and ALK1 tends to complex with ActRIIB; this ALK1/ActRIIB complex has high affinity for BMP9 and BMP10. […] BMP signaling output is monitored by a BMP signal luciferase reporter plasmid which contains a Smad1/5/8 response element in the promoter region. The biological efficacy of ALK1 antagonists is measured by their ability to inhibit BMP-9-induced BMP reporter activity by ALK5-deficient chondrocytic cells, such as ALK5-deficient ATDC5 cells. […]

The next data set deals with ALK3 (Homo sapiens, UniProt P36894). The settings on record: kinase assay; cited from earlier work.
The next data set has as its system adult growth plate. Kind of data set: SOFG histology of proximal tibial growth plate in DMM mice. Format: in vivo, mouse. The settings on record: week 8 after DMM surgery. An excerpt: FIG. 10. […] Sagittal sections of the proximal tibial growth plate were stained with Safranin-O/Fast Green (SOFG) to visualize proteoglycan (red) in the growth plate, subchondral bone (top blue), and trabecular bone (bottom blue) at week 8 after DMM or Sham surgery. […] Alk1^Col2 mice underwent DMM surgery (DMM+Alk1^Col2). WT control mice (lacking Col2a1-Cre) underwent sham surgery and received PBS treatment (Sham+PBS). (n=5/group).
Knee joint samples were harvested and fixed in 4% Paraformaldehyde for 3 days, and subsequently decalcified in formic acid (Statlab; 1414-32) for 3 days and embedded in paraffin. Sagittal sections 7 micrometers in thickness were taken and stained using Safranin-O (Sigma-Aldrich; S8884-25G), fast green (Sigma-Aldrich; F7258-25G), and hematoxylin (Fisherbrand; 245-656) using a standard histology protocol. Images were taken with the Olympus BX60 brightfield microscope using a 10× objective lens. Representative sections throughout the medial and lateral portion of side were chosen for histological analysis, resulting in 5 sections being imaged for both portions of the joint.

Another data set has as its system subchondral bone plate. Kind of data set: Subchondral bone plate analysis in DMM mice. Format: in vivo, mouse. The settings on record: after DMM surgery. From the text:
Dissected knee joints underwent Micro-CT analysis using the Skyscan 1172 in vivo μCT scanner (Bruker micro-CT, Kontich, Belgium) at 55 kV and 181 μA, with a resolution of 10 μm. The raw data was then translated into two-dimensional cross-sectional gray scale image slices using NRecon (Bruker microCT, Kontich, Belgium). Structural parameters were then acquired from the two-dimensional images using a CT Analyzer (CT-AN, v1.10.9.0, Bruker microCT, Kontich, Belgium), including bone volume fraction (BV, mm3). The total knee osteophyte volume from the end of the distal femur to the end of the proximal tibia was compared between knees that underwent sham surgery, DMM surgery treated with PBS, DMM surgery treated with BMP-KI, or DMM surgery treated with ALK1-Fc. Average osteophyte volume was analyzed with Prism 9 Software (GraphPad) using two-way ANOVA and Tukey's multiple comparisons test post-hoc. MicroCT and data analysis was performed by an experienced investigator blinded to genotype/treatment. For each experimental group, five joint sections per animal were analyzed from the medial compartment. […] All quantifications were conducted in Fiji is Just ImageJ (FIJI, version 2.9.0). Quantified subchondral bone thickness was analyzed with Prism 9 Software (GraphPad) using two-way ANOVA and Tukey's multiple comparisons test post-hoc.

Sequence of ALK3 (P36894 24-532, species assumed): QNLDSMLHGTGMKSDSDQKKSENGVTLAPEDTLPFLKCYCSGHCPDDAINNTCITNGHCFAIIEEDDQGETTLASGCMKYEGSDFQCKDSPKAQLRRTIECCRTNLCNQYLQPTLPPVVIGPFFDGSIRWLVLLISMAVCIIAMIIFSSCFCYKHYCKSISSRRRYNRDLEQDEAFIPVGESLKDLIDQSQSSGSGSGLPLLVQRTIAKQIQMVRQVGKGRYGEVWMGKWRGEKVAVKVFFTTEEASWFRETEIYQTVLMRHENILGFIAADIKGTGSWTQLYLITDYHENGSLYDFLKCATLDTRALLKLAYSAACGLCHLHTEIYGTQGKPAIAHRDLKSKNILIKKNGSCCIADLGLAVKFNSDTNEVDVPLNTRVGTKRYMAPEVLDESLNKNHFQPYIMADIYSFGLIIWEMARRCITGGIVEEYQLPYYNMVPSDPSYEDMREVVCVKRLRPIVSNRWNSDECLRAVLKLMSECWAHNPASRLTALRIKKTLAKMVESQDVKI

`COc1cc(-c2cc(-c3ccc(N4CCNCC4)cc3)cnc2C)cc(OC)c1OC` [LDN-214117]: in data set [1], the EC50 was found to be 40 nM. Moreover, the IC50 on ALK3 is 1170 nM. The “impact on adult growth plate maintenance” value in the data set on adult growth plate was “no obvious impact”. For the same compound, the “total volume of the subchondral plates” value in the data set on subchondral bone plate (week 8, microCT) is on record as “no significant impact”. In addition, in the data set on subchondral bone plate (week 8, listed as BMP-KI), the “thickness (thickening) of the subchondral bone plate” value is “no significant impact; also recorded: no observed effect”.
